Values after ≈ are worked out from the molar mass of the structure shown. Counter-ions that a name gives are not always drawn.
What was measured:
Heme Oxygenase 1 (HO1) = assay: PD study, HMOX1 protein levels in mouse plasma and liver (ELISA); assay type: in vivo; details: HMOX1 protein fold induction vs time-matched vehicle, 50 mpk oral; for Liver Protein (3 h) / Liver Protein (6 h): mouse liver; for Plasma Protein (3 h) / Plasma Protein (6 h): mouse plasma
Description: 9-10 week old male C57BL/6 mice were dosed orally with 50 mg/kg of vehicle or compound formulated in 5% w/v tween 80 and 0.5% methyl cellulose. At indicated time points (3 and 6 hours or or 4 and 8 hours post-dosing as shown in the results below), whole blood was collected, animal was sacrificed and liver was collected. Blood samples were transferred to vials containing 4 μL of 10% w/v EDTA, centrifuged at 6000 rpm for 8 in below 10° C. to obtain plasma. Samples were frozen and later processed for HMOX1 protein levels as indicated below:
HMOX 1 Protein Levels: Mouse Liver
Preparation of Homogenization/Lysis Buffer
The homogenization buffer was prepared according Table A.
Immediately prior to use, add DTT (ThermoScientific #R0861) to a final concentration of 5 mM and 100×Halt Protease & Phosphatase Inhibitor Cocktail (ThermoScientific #78440) to a final concentration of 1×.
Preparation of Mouse Liver Samples
Liver samples were crushed by mortar and pestle under freezing conditions. Pulverized tissue was transferred into pre-chilled bead ruptor OMNI tubes (OMNI International, Cat #19-628). 1 mL of homogenization buffer (+DTT and HALT) was added to pulverized tissue and tubes were placed on ice. Samples were loaded and run through bead ruptor at speed 5.64 m/s, for two 20 sec cycles with 10 sec dwell between cycles and samples were immediately returned to ice. All material was transferred to a new chilled 2 mL Eppendorf tube. Samples were centrifuged for 5 minutes at 2,000 rpm at 4° C. Supernatant was transferred to a fresh chilled 1.7 mL Eppendorf tube. Samples were centrifuged for 5 minutes at 2,000 rpm at 4° C. The supernatant, consisting of cytosol and microsomes, was transferred to a fresh chilled 1.7 mL Eppendorf tube. Samples were stored at −80° C. Microsome samples were quantitated using Pierce 660 Assay (ThermoFisher Cat #22660) with pre-diluted BSA standards (ThermoFisher Cat #23208) ranging from 125-2000 μg/mL. Each sample was diluted to 10ng/ul for an ELISA input of 0.5ug in 50ul.
Preparation of Assay Reagents
All assay reagents were provided in the Heme Oxygenase 1 (HO1) Mouse SimpleStep ELISA Kit (Abcam #ab204524). Prior to use, all reagents were equilibrated to room temperature. 1×Wash Buffer PT was prepared by diluting 10×Wash Buffer PT 1:10 with deionized water. Antibody cocktail was prepared by diluting the 10×Capture Antibody and 10×Detector Antibody to 1×in Antibody Diluent 5BI. Mouse heme oxygenase 1 protein standard was reconstituted using 500ul homogenization buffer (Table A), mixed and held at room temperature for 10 minutes prior to dilution. An eight point standard curve was generated by diluting the Stock Standard 1:2 for standard curve ranging from 10,000-156.3 pg/mL.
Heme Oxygenase 1 (HO1) Mouse SimpleStep ELISA
50ul of all samples and standards were added to appropriate wells in duplicate. 50ul of 1×Antibody Cocktail was added to each well. The plate was sealed with provided seal and incubated at room temperature on a plate shaker at 400 rpm. After one hour incubation, the Antibody Cocktail was aspirated and the wells were washed three times with 350ul 1×Wash Buffer PT, aspirating completely between each step. After the last wash was aspirated dry, 100ul TMB Substrate was added to each well and the plate was incubated in the dark at room temperature for 10 minutes on a plate shaker at 400 rpm. After the 10 minute incubation, 100ul of Stop Solution was added to each well. Plate was shaken at 400 rpm for 1 minute to mix. Softmax Pro 7.0.3 was used to read OD at 450 nm as well as for analysis.
Heme Oxygenase 1 Protein Levels in Mouse Plasma
All assay reagents were provided in the Heme Oxygenase 1 (HO1) Mouse SimpleStep ELISA Kit (Abcam #ab204524). 1×Wash Buffer PT was prepared by diluting 10×Wash Buffer PT 1:10 with deionized water. Antibody cocktail was prepared by diluting the 10×Capture Antibody and 10×Detector Antibody to 1×in Antibody Diluent 5BI. […]

FTH1 = FTH1 mRNA expression in HepG2 cells (Nanostring); assay type: cell-based, human; details: 24 hours treatment
Description: RNA Isolation and Quantification of Gene Expression
HepG2 cells were seeded at 250 k/well in 12-well tissue culture plates coated with collagen (collagen I, rat tail (thin plate coating); ENZO Life Sciences) for approximately 24 hours. The seeded cells were then treated with dose titration of the compound of Example 17 or dimethyl fumarate (DMF) (a Nrf2 activator; Fisher Scientific) via media change, with biological triplicates performed for each treatment. After approximately 24 hours of treatment, cells were visually inspected to confirm that no toxicity occurred with compound treatment. The treated cells were washed with PBS, aspirated, parafilmed and frozen at −80° C. prior to RNA isolation. RNA was isolated using Machery-Nagel isolation kit (NucleoSpin® RNA: catalog 740955.250) and then quantitated using ThermoFisher Nanodrop.
RNA was diluted for Nanostring gene expression analysis. The diluted RNA at an input of 200ng RNA was run on a Nanostring instrument, which was supported with nCounter® SPRINT Profiler System and nSolver4.0 Software, nCounter® SPRINT Cartridge, nCounter® SPRINT Reagent Pack, and nCounter© SPRINT Hybridization Buffer. Analysis was done manually using raw data obtained from nSolver4.0 Software. CLTC, POLR2A, RPL27 and TBP were used as reference genes for normalization. Data was graphed as fold change compared to DMSO treatment. […]

[1] = tested on: Human Heme Oxygenase-1 (HMOX-1); assay: ELISA assay to measure human heme oxygenase-1 (HMOX-1) in HepG2 lysate; assay type: cell-based; details: for Maximum Fold induction: fold change of human HMOX1 protein levels relative to DMSO control, HepG2; for EC50: human HMOX1 protein in HepG2 lysate, ELISA, * = average of 2 or more EC50 determinations, NA = Not Active
Summary of the method: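 HepG2 cells lysed in PBS/0.5% Triton X-100/1 mM EDTA with protease inhibitors; lysate diluted 1:20. Sandwich ELISA: anti-HO-1 capture (8 μg/ml), biotinylated detection antibody (200 ng/ml), streptavidin-HRP, chemiluminescent read. Quantified against 12-point HO-1 standard curve from 20 ng/ml; incubations at 20 °C.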

Kinetic solubility = assay type: physicochemical; details: Dulbecco's phosphate buffered saline (DPBS), aqueous buffer, kinetic from dmso stock, DPBS pH 7.4, 25° C., 200 μM test compound
Description: 10 μL of 10 mM DMSO stock solution were aliquotted to 490 μL of DMSO solution and separately 490 μL of Dulbecco's phosphate buffer saline, DPBS, pH 7.4 solution in 1.2 mL 96-well plates in duplicate. Final concentration was 200 μM of the test compound. Samples were incubated at 25° C. with shaking at 200 rpm for 16 h. Samples were centrifuged at 3500 rpm for 20 min at 25° C., and supernatant was submitted for HPLC analysis.
Kinetic solubility was measured using the following equation: […]

[2] = PD study, liver compound concentration in mice; assay type: in vivo; details: mouse liver, 50 mpk oral
[3] = PK study, plasma and brain levels in C57BL/6 mice; assay type: in vivo, mouse; details: male C57BL/6 mice, 50 mg/kg oral
Description: 9-10 week old male C57BL/6 mice were dosed orally with 50 mg/kg of the test compound formulated in 5% w/v tween 80 and 0.5% methyl cellulose. At 0.5 and 4 h post dosing, whole blood was collected, animals were sacrificed and brain tissues were collected. The blood samples were immediately placed on ice, and centrifuged within 60 min at 4° C. for 3 min at 14000 rpm to obtain plasma. Plasma was transferred by pipette to pre-labeled Eppendorf tubes, stored at −80° C. until analyzed.
Brain tissue samples were collected and rinsed with fresh ice cold 0.9% NaCl solution, dried quickly and thereafter frozen on dry ice/liquid nitrogen and stored at −70±10° C. until analyzed. Homogenization was done using phosphate buffer saline and used for analysis. Bioanalysis was performed using LC-MS/MS (API 4000).

With `Cn1c(Nc2nc3ccc(OC(F)(F)F)cc3s2)nc2cc(C(=O)NCCOCCO)ccc21` [Comparator 1, 1-methyl-2-(6-trifluoromethoxy-benzothiazol-2-ylamino)-1H-benzoimidazole-5-carboxylic acid [2-(2-hydroxyethoxy)-ethyl]-amide, reference compound] the “Liver Protein (3 h)” value (Heme Oxygenase 1 (HO1)) was 1.6x, the “Liver Protein (6 h)” value (Heme Oxygenase 1 (HO1)) was 3.2x and the “Plasma Protein (3 h)” value (Heme Oxygenase 1 (HO1)) was 1.1x. The “Plasma Protein (6 h)” value (Heme Oxygenase 1 (HO1)) was 1.3x.
With `COC(=O)/C=C/C(=O)OC` [DMF, dimethyl fumarate, reference compound] the “FTH1 expression fold increase” value (FTH1) was “comparable fold increases”.
For `Cn1c(Nc2nc3c(s2)CC(C)(C)CC3)nc2cc(C(=O)NCCOCCO)ccc21` [Example 6, 2-((6,6-dimethyl-4,5,6,7-tetrahydrobenzo[d]thiazol-2-yl)amino)-N-(2-(2-hydroxyethoxy)ethyl)-1-methyl-1H-benzo[d]imidazole-5-carboxamide], the “Maximum Fold induction” value [1] was 41, the EC50 [1] was 3000 nM and the solubility at 16 h (Kinetic solubility) was 8.1 µM (≈ 3.59 µg/mL).
For `CC1CCc2nc(Nc3nc4cc(C(=O)NCCOCCO)ccc4n3C)sc2C1` (stereo not drawn) [Example 7, N-(2-(2-hydroxyethoxy)ethyl)-1-methyl-2-((6-methyl-4,5,6,7-tetrahydrobenzo[d]thiazol-2-yl)amino)-1H-benzo[d]imidazole-5-carboxamide], the “Maximum Fold induction” value [1] was 27, the EC50 [1] was 2700 nM and the solubility at 16 h (Kinetic solubility) was 7.2 µM (≈ 3.09 µg/mL).
In the case of `COCCNC(=O)c1ccc2c(c1)nc(Nc1nc3c(s1)CCC3)n2C` [Example 8, 2-((5,6-dihydro-4H-cyclopenta[d]thiazol-2-yl)amino)-N-(2-methoxyethyl)-1-methyl-1H-benzo[d]imidazole-5-carboxamide], the “Maximum Fold induction” value [1] is reported as 5-8, the EC50 [1] is reported as 2500 nM and the solubility at 16 h (Kinetic solubility) is reported as 6.9 µM (≈ 2.56 µg/mL).
With `Cl.Cn1c(Nc2nc3c(s2)CNCC3)nc2cc(C(=O)NCCOCCO)ccc21` [Example 9, N-(2-(2-hydroxyethoxy)ethyl)-1-methyl-2-((4,5,6,7-tetrahydrothiazolo[5,4-c]pyridin-2-yl)amino)-1H-benzo[d]imidazole-5-carboxamide hydrochloride] the “Maximum Fold induction” value [1] was 2 and the solubility at 16 h (Kinetic solubility) was 2.8 µM.
With `Cn1c(Nc2nc3cc(OC(F)(F)F)ccc3[nH]2)nc2cc(C(=O)O)ccc21` [Example 13, 1-methyl-2-((5-(trifluoromethoxy)-1H-benzo[d]imidazol-2-yl)amino)-1H-benzo[d]imidazole-5-carboxylic acid] the “Maximum Fold induction” value [1] was 6-27, the “Liver Protein (3 h)” value (Heme Oxygenase 1 (HO1)) was 1.8x and the “Liver Protein (6 h)” value (Heme Oxygenase 1 (HO1)) was 1.2x. For the same compound, the “Plasma Protein (3 h)” value (Heme Oxygenase 1 (HO1)) was 1.1x and the “Plasma Protein (6 h)” value (Heme Oxygenase 1 (HO1)) was 0.8x.
In the case of `Cn1c(Nc2nc3ccccc3o2)nc2cc(C(=O)NCCNC3=NCCN3)ccc21` [Example 22, 2-(benzo[d]oxazol-2-ylamino)-N-(2-((4,5-dihydro-1H-imidazol-2-yl)amino)ethyl)-1-methyl-1H-benzo[d]imidazole-5-carboxamide], the “Maximum Fold induction” value [1] is reported as 18 and the solubility at 16 h (Kinetic solubility) is reported as 3.5 µM (≈ 1.46 µg/mL).
In the case of `Cn1c(Nc2nc3ccc(OC(F)(F)F)cc3o2)nc2cc(C(=O)O)ccc21` [Example 44, 1-methyl-2-((6-(trifluoromethoxy)benzo[d]oxazol-2-yl)amino)-1H-benzo[d]imidazole-5-carboxylic acid], the “Maximum Fold induction” value [1] is reported as 9-14, the “Liver Protein (3 h)” value (Heme Oxygenase 1 (HO1)) is reported as 1.6x and the “Liver Protein (6 h)” value (Heme Oxygenase 1 (HO1)) is reported as 2.1x. The “Plasma Protein (3 h)” value (Heme Oxygenase 1 (HO1)) was 1.0 x, the “Plasma Protein (6 h)” value (Heme Oxygenase 1 (HO1)) was 1.1x and the “Liver Conc uM (3 h)” value ([2]; 3 h) was 217 µM. The “Liver Conc uM (6 h)” value ([2]; 6 h) was 162 µM.
With `COCCNC(=O)c1ccc2c(c1)nc(Nc1nc3ccc(OCCOC)cc3o1)n2C` [Example 56, 2-((6-(2-methoxyethoxy)benzo[d]oxazol-2-yl)amino)-N-(2-methoxyethyl)-1-methyl-1H-benzo[d]imidazole-5-carboxamide] the “Maximum Fold induction” value [1] was 21-38 and the brain penetration [3] was “good brain penetration”.
In the case of `Cn1c(Nc2nc3ccccc3o2)nc2cc(C(=O)C(F)(F)F)ccc21` [Example 139, 1-(2-(benzo[d]oxazol-2-ylamino)-1-methyl-1H-benzo[d]imidazol-5-yl)-2,2,2-trifluoroethan-1-one], the “Maximum Fold induction” value [1] is reported as 21.
In the case of `Cn1c(Nc2nc3ccccc3o2)nc2cc(/C(=N/O)C(F)(F)F)ccc21` [Example 140, (Z)-1-(2-(benzo[d]oxazol-2-ylamino)-1-methyl-1H-benzo[d]imidazol-5-yl)-2,2,2-trifluoroethan-1-one oxime], the “Maximum Fold induction” value [1] is reported as 19.
For `Cn1c(Nc2nc3ccccc3o2)nc2cc(C(N)C(F)(F)F)ccc21` (stereo not drawn) [Example 141, N-(5-(1-amino-2,2,2-trifluoroethyl)-1-methyl-1H-benzo[d]imidazol-2-yl)benzo[d]oxazol-2-amine], the “Maximum Fold induction” value [1] was 22.
For `Cn1c(Nc2nc3ccccc3o2)nc2cc(C(O)C(F)(F)F)ccc21` (stereo not drawn) [Example 142, 1-(2-(benzo[d]oxazol-2-ylamino)-1-methyl-1H-benzo[d]imidazol-5-yl)-2,2,2-trifluoroethan-1-ol], the “Maximum Fold induction” value [1] was 27.
